From EP0293814A1, “Mono- and polyhydroxyacyl derivatives of polyoxygenated labdanes, a process for their production and their use as drugs” (HOECHST AKTIENGESELLSCHAFT, priority 1987, dated 1988)

Assay: Lowering of intraocular pressure, Schiotz tonometry
Format: in vivo
Source text: Die Labdane der vorliegenden Anmeldung eignen sich zur Behandlung des erhöhten Augeninnendrucks, weil sie, wie mit der Schiotz-Tonometrie nachgewiesen, die Eigenschaft besitzen, den Augeninnendruck herabzusetzen (s. Capriol. J., Sears, M., Lancet, 1, (1983) 958 - 96).
Die Wirksamkeit einiger repräsentativer Verbindungen gemäß der Erfindung ist als prozentuale Senkung des Augeninnendrucks ausgedrückt und in Tab. 2 dargestellt.

| SMILES | Senkung des Augeninnendrucks (%) (Konzentration 2 %) | Senkung des Augeninnendrucks (%) (Konzentration 0,1 %) | Senkung des Augeninnendrucks (%) (Konzentration 0,5 %) | Senkung des Augeninnendrucks (%) (Konzentration 0,25 %) | Erniedrigung des Augeninnendrucks (in words, compared with the other substances of the invention (Tab. 2)) |
| --- | --- | --- | --- | --- | --- |
| C=C[C@@]1(C)CC(=O)[C@]2(O)[C@@]3(C)[C@@H](O)CCC(C)(C)[C@@H]3[C@H](O)[C@H](OC(=O)COCC)[C@@]2(C)O1 [compound 1] | 31% |  |  |  |  |
| C=C[C@@]1(C)CC(=O)[C@]2(O)[C@@]3(C)[C@@H](O)CCC(C)(C)[C@@H]3[C@H](OC(=O)COCC)[C@H](O)[C@@]2(C)O1 [compound 2] | 20% |  |  |  |  |
| C=C[C@@]1(C)CC(=O)[C@]2(O)[C@@]3(C)[C@@H](OC(=O)COC=O)CCC(C)(C)[C@@H]3[C@H](O)[C@H](OC(=O)COC=O)[C@@]2(C)O1 [compound 5] | 26% |  |  |  |  |
| C=C[C@@]1(C)CC(=O)[C@]2(O)[C@@]3(C)[C@@H](O)CCC(C)(C)[C@@H]3[C@H](O)[C@H](OC(=O)[C@H](O)CO)[C@@]2(C)O1 [compound 7] | 27% | 17% | 25% | 24% | wesentlich besser erniedrigt als die anderen Substanzen der Erfindung |
